These results are taken from article PMC3040889, “Synthesis and Biological Evaluation of Delavayin-C” (Indian Journal of Pharmaceutical Sciences, 2008).

Assay type in all cases: cell-based
For assay [1], the system named is Psuedomonas aeruginosa. Briefly: microbe, parasite or virus in culture. The conditions noted are these: disc diffusion, 50 μg/ml. As to the method:
(§1) The synthesized cyclic heptapeptide was screened in vitro for its antibacterial and antifungal activity by using disc diffusion method and tube dilution technique. The antibacterial activity was determined against four bacterial species (B. subtilis, S. aureus, E. coli and P. aeruginosa) and antifungal activity against Candida albican. In the disc diffusion method, the activity studies were carried out according to modified Kirby-Bauer method. Benzyl penicillin and fluconazole were used as standards against bacterial and fungal strains, respectively at a concentration of 50 μg/ml. Nutrient broth and Sabourds agar were used as a medium and dimethylformamide (DMF) was used as a solvent control for carrying out the activity. After preparation of the disc, allowed to stand for 24 h at 37°. The zone of inhibition, observed around the disks after incubation, was measured.

For assay [2], the system named is Escherichia coli. Description: microbe, parasite or virus in culture. The conditions noted are these: disc diffusion, 50 μg/ml. As to the method:
as §1

Assay [3] concerns Bacillus subtilis. Description: microbe, parasite or virus in culture. The conditions noted are these: disc diffusion, 50 μg/ml. As to the method: as §1
Assay [4] concerns Candida albicans. Briefly: microbe, parasite or virus in culture. The conditions noted are these: disc diffusion, 50 μg/ml. How it is done: as §1
Assay [5] concerns Staphylococcus aureus. Description: microbe, parasite or virus in culture. The conditions noted are these: disc diffusion, 50 μg/ml. As to the method:
as §1

For assay [6], the system named is Psuedomonas aeruginosa. Briefly: tube dilution technique for minimum inhibitory concentration. Also noted: key: (+) indicates presence of growth (no activity); –: absence of growth. The conditions noted are these: P. aeruginosa, nutrient broth, 37° for 24 h, turbidity. As to the method: (§2) Compound inhibiting growth of microorganisms was further tested for minimum inhibitory concentration (MIC). A solution of the compound was prepared in DMF and a series of doubling dilutions prepared with sterile pipettes. To each of a series of sterile stoppered test tubes, a standard volume of nutrient broth medium was added. A control tube containing no antimicrobial agent was included. The inoculum consisting of an overnight broth culture of microorganisms was added to separate tubes. The tubes were incubated at 37° for 24 h and examined for turbidity. The tube with highest dilution showing no turbidity was the one containing compound with MIC.

In assay [7] the test system is Escherichia coli. Described as above. Also on record: key: (+) indicates presence of growth (no activity); –: absence of growth. The conditions noted are these: E. coli, nutrient broth, 37° for 24 h, turbidity. As to the method: as §2
For assay [8], the system named is Bacillus subtilis. Described as above. Also on record: key: (+) indicates presence of growth (no activity); –: absence of growth. The conditions noted are these: B. subtilis, nutrient broth, 37° for 24 h, turbidity. How it is done:
as §2

Assay [9] has as its system Candida albicans. Described as above. Also noted: key: (+) indicates presence of growth (no activity); –: absence of growth. The conditions noted are these: C. albicans, broth medium, 37° for 24 h, turbidity. How it is done: as §2
Assay [10] has as its system Staphylococcus aureus. The assay is described as above. Also noted: key: (+) indicates presence of growth (no activity); –: absence of growth. The conditions noted are these: S. auereus, nutrient broth, 37° for 24 h, turbidity. As to the method: as §2
Setting [11] is: 24 h at 37°, DMF solvent control.

Residues, ends and D or L forms follow the SMILES beside them.

Turning to `CC1(C)S[C@@H]2[C@H](NC(=O)Cc3ccccc3)C(=O)N2[C@H]1C(=O)O` [Benzyl Penicillin, Benzyl penicillin, reference compound], the zone of inhibition at 50 µg/mL in the assay on Psuedomonas aeruginosa [1] (Pseudomonas aeruginosa, 24 h at 37°, DMF solvent control, read-out: Diameter of zone of inhibition, P. aeruginosa) was 17 mm; with Escherichia coli [2] (Escherichia coli, 24 h at 37°, DMF solvent control, read-out: Diameter of zone of inhibition, E. coli), 16 mm; in the assay with Bacillus subtilis [3] (Bacillus subtilis, 24 h at 37°, DMF solvent control, read-out: Diameter of zone of inhibition, B. Subtilis), 15 mm; with Staphylococcus aureus [5] (Staphylococcus aureus, 24 h at 37°, DMF solvent control, read-out: Diameter of zone of inhibition, S. auereus), 25 mm. Moreover, in the assay with Candida albicans [4] (setting [11]), the “Diameter of zone of inhibition, C. albicans” value is given as “-”.
With `CC(C)[C@@H]1NC(=O)[C@@H]2CCCN2C(=O)[C@H](Cc2ccc(O)cc2)NC(=O)[C@H](Cc2ccc(O)cc2)NC(=O)[C@H](Cc2ccc(O)cc2)NC(=O)CNC(=O)[C@@H]2CCCN2C1=O` [Compound, delavayin-C, cyclo(gly-tyr-tyr-tyr-pro-val-pro)] (cyclo(GYYYPVP)), in the assay on Psuedomonas aeruginosa [1], the “activity against P. aeruginosa when compared with standard drug benzyl penicillin (in words)” value is listed as “less activity”. Further, in the assay with Psuedomonas aeruginosa [1] (setting [11]), the “Diameter of zone of inhibition, P. aeruginosa” value is recorded as 11 mm. Besides, in the assay on Escherichia coli [2], the “activity against E. coli when compared with standard drug benzyl penicillin (in words)” value is recorded as “less activity”. For the same compound, in the assay on Escherichia coli [2] (setting [11]), the “Diameter of zone of inhibition, E. coli” value amounted to 10 mm. The “activity against B. subtilis when compared with standard drug benzyl penicillin (in words)” value in the assay with Bacillus subtilis [3] is given as “moderate activity”. The “Diameter of zone of inhibition, B. Subtilis” value in the assay with Bacillus subtilis [3] (setting [11]) is on record as 15 mm. In the assay with Candida albicans [4], the “inhibition of growth against Candida albicans (in words)” value is “moderate inhibition of growth”. Besides, in the assay with Candida albicans [4] (setting [11]), the “Diameter of zone of inhibition, C. albicans” value turned out to be 18 mm. Besides, the “activity against S. aureus when compared with standard drug benzyl penicillin (in words)” value in the assay on Staphylococcus aureus [5] was “moderate activity”. The “Diameter of zone of inhibition, S. auereus” value with Staphylococcus aureus [5] (setting [11]) was determined as 21 mm. Moreover, the “Presence or absence of growth” value with Psuedomonas aeruginosa [6] (1.56 μg/ml), with Psuedomonas aeruginosa [6] (3.13 μg/ml), in the assay on Psuedomonas aeruginosa [6] (6.25 μg/ml), with Psuedomonas aeruginosa [6] (12.5 μg/ml), with Psuedomonas aeruginosa [6] (25 μg/ml) and in the assay with Psuedomonas aeruginosa [6] (50 μg/ml) was “+” throughout. The “Presence or absence of growth” value in the assay on Psuedomonas aeruginosa [6] (100 μg/ml) was “–”; in the assay on Escherichia coli [7] (1.56 μg/ml) it was “+”; in the assay on Escherichia coli [7] (3.13 μg/ml) it was “+”; in the assay on Escherichia coli [7] (6.25 μg/ml), “+”; in the assay on Escherichia coli [7] (12.5 μg/ml), “+”; in the assay with Escherichia coli [7] (25 μg/ml) it was “+”. Further, the “Presence or absence of growth” value is given as “+” with Escherichia coli [7] (50 μg/ml); “–” in the assay on Escherichia coli [7] (100 μg/ml); “+” with Bacillus subtilis [8] (1.56 μg/ml); “+” in the assay with Bacillus subtilis [8] (3.13 μg/ml); “+” with Bacillus subtilis [8] (6.25 μg/ml); “+” in the assay with Bacillus subtilis [8] (12.5 μg/ml). For the same compound, the “Presence or absence of growth” value with Bacillus subtilis [8] (25 μg/ml) is on record as “+”; in the assay on Bacillus subtilis [8] (50 μg/ml), “–”; in the assay on Bacillus subtilis [8] (100 μg/ml), “–”; with Candida albicans [9] (1.56 μg/ml) it was “+”; in the assay on Candida albicans [9] (3.13 μg/ml) it was “+”; in the assay on Candida albicans [9] (6.25 μg/ml), “+”. Also, the “Presence or absence of growth” value in the assay on Candida albicans [9] (12.5 μg/ml) was “+”; with Candida albicans [9] (25 μg/ml), “+”; in the assay on Candida albicans [9] (50 μg/ml), “–”; in the assay with Candida albicans [9] (100 μg/ml), “–”; in the assay on Staphylococcus aureus [10] (1.56 μg/ml), “+”; in the assay on Staphylococcus aureus [10] (3.13 μg/ml), “+”. Besides, the “Presence or absence of growth” value in the assay on Staphylococcus aureus [10] (6.25 μg/ml), with Staphylococcus aureus [10] (12.5 μg/ml), in the assay with Staphylococcus aureus [10] (25 μg/ml) and in the assay on Staphylococcus aureus [10] (50 μg/ml) was “+” throughout.
With `OC(Cn1cncn1)(Cn1cncn1)c1ccc(F)cc1F` [Fluconazole, fluconazole, reference compound], the “Diameter of zone of inhibition, P. aeruginosa” value in the assay on Psuedomonas aeruginosa [1] (setting [11]) is given as “-”. Also, the “Diameter of zone of inhibition, E. coli” value in the assay with Escherichia coli [2] (setting [11]) is on record as “-”. Also, the “Diameter of zone of inhibition, B. Subtilis” value with Bacillus subtilis [3] (setting [11]) was “-”. Further, the zone of inhibition at 50 µg/mL with Candida albicans [4] (Candida albicans, 24 h at 37°, DMF solvent control, read-out: Diameter of zone of inhibition, C. albicans) is 20 mm. In addition, the “Diameter of zone of inhibition, S. auereus” value in the assay on Staphylococcus aureus [5] (setting [11]) is reported as “-”.
